In a flash point compilation (Sun et al. 2020) one finds flash point data, which are given here for 91 compounds.

`COCC(C)OCC(C)OC(C)CO` (stereo unspecified) [2-[1-(1-methoxypropan-2-yloxy)propan-2-yloxy]propan-1-ol]: the flash point was 121.00 °C. For `CC(COc1ccc(Oc2ccccc2)cc1)Oc1ccccn1` (stereo unspecified) [2-[1-(4-phenoxyphenoxy)propan-2-yloxy]pyridine] the value was 119.00 °C; for `CC(=O)OCCOCCOCCOC(C)=O` [2-[2-(2-acetyloxyethoxy)ethoxy]ethyl acetate], 174.00 °C; for `CCCCOCCOCCOCCO` [2-[2-(2-butoxyethoxy)ethoxy]ethanol], 143.00 °C. For `COC(C)COC(C)COC(C)CO` (stereo unspecified) [2-[2-(2-methoxypropoxy)propoxy]propan-1-ol] the value was 111.00 °C. Take `COC(O)COCCOCCOCCO` (stereo unspecified) [2-[2-[2-(2-hydroxyethoxy)ethoxy]ethoxy]-1-methoxyethanol]: the flash point is 161.00 °C. For `CC(C)(C)c1ccc(OCC2CO2)cc1` (stereo unspecified) [2-[(4-tert-butylphenoxy)methyl]oxirane] the value was 102.00 °C; for `OCCN(CCO)CCO` [2-[bis(2-hydroxyethyl)amino]ethanol], 185.00 °C; for `CCOP(=O)(SC(C)CC)SC(C)CC` (stereo unspecified) [2-[butan-2-ylsulfanyl(ethoxy)phosphoryl]sulfanylbutane], 129.00 °C. Under `CCN(CCO)CCO` [2-[ethyl(2-hydroxyethyl)amino]ethanol] stands 98.00 °C; under `CC(=O)OCCOC(C)=O` [2-acetyloxyethyl acetate], 96.00 °C; under `CC(C)(N)CO` [2-amino-2-methylpropan-1-ol], 67.00 °C. Consider `Nc1cc(Cl)ccc1O` [2-amino-4-chlorophenol], for which the flash point came out at 170.00 °C. Consider `Nc1ccc2c(c1)C(=O)c1ccccc1C2=O` [2-aminoanthracene-9,10-dione], for which the flash point came to 283.00 °C. For `CC(N)CO` (stereo unspecified) [2-aminopropan-1-ol] the value was 63.00 °C; for `O=C1OC(=O)c2ccccc21` [2-benzofuran-1,3-dione], 152.00 °C. In the case of `OCCBr` [2-bromoethanol], the flash point was 41.00 °C. `Oc1ccccc1Br` [2-bromophenol] had a flash point of 42.00 °C. For `CCC(C)c1ccccc1O` (stereo unspecified) [2-butan-2-ylphenol] the value was 112.00 °C; for `CCCCOCCO` [2-butoxyethanol], 61.00 °C; for `Nc1ccc([N+](=O)[O-])cc1Cl` [2-chloro-4-nitroaniline], 205.00 °C. In turn, `Clc1cccc(C(Cl)(Cl)Cl)n1` [2-chloro-6-(trichloromethyl)pyridine] had a flash point of 100.00 °C. Under `CCc1cccc(CC)c1N(COC)C(=O)CCl` [2-chloro-N-(2,6-diethylphenyl)-N-(methoxymethyl)acetamide] stands 137.00 °C; under `O=CCCl` [2-chloroacetaldehyde], 88.00 °C. In the case of `NC(=O)CCl` [2-chloroacetamide], the flash point was 170.00 °C. In turn, `N#CCCl` [2-chloroacetonitrile] returned a flash point of 48.00 °C. For `O=C(Cl)CCl` [2-chloroacetyl chloride] the value was 100.00 °C. For `O=Cc1ccccc1Cl` [2-chlorobenzaldehyde] the value was 88.00 °C; for `C=CC(=C)Cl` [2-chlorobuta-1,3-diene], -20.00 °C. For the compound `OCCCl` [2-chloroethanol], the flash point was 60.00 °C. Take `ClC=Cc1ccccc1` [2-chloroethenylbenzene]: the flash point is 58.00 °C. For `Clc1ccc2ccccc2c1` [2-chloronaphthalene] the value was 125.00 °C; for `Oc1ccccc1Cl` [2-chlorophenol], 64.00 °C; for `CC(Cl)CO` (stereo unspecified) [2-chloropropan-1-ol], 52.00 °C.

`CCCCCCCCCCCCc1ccccc1S(=O)(=O)O` [2-dodecylbenzenesulfonic acid] showed a flash point of 149.00 °C. Consider `C=Cc1ccccn1` [2-ethenylpyridine], for which the flash point stood at 42.00 °C. For `CCOC1CCC=CO1` (stereo unspecified) [2-ethoxy-3,4-dihydro-2H-pyran] the value was 37.00 °C; for `CCOCCOC(C)=O` [2-ethoxyethyl acetate], 57.00 °C; for `CCc1cccc(C)c1N` [2-ethyl-6-methylaniline], 102.00 °C. For `CCCCC(CC)CNCC(CC)CCCC` (stereo unspecified) [2-ethyl-N-(2-ethylhexyl)hexan-1-amine] the value was 132.00 °C; for `CCC(C=O)CC` [2-ethylbutanal], 21.00 °C.

`CCC(CC)COC(C)=O` [2-ethylbutyl acetate] displayed a flash point of 54.00 °C. Under `CCCCC(CC)CN` (stereo unspecified) [2-ethylhexan-1-amine] stands 60.00 °C; under `CCCCC(CC)CO` (stereo unspecified) [2-ethylhexan-1-ol], 81.00 °C; under `CCCCC(C=O)CC` (stereo unspecified) [2-ethylhexanal], 52.00 °C. Under `CCCC(O)C(CC)CO` (stereo unspecified) [2-ethylhexane-1,3-diol] stands 127.00 °C; under `CCCCC(CC)C(=O)O` (stereo unspecified) [2-ethylhexanoic acid], 127.00 °C; under `CCCCC(CC)COC(=O)COc1ccc(Cl)cc1Cl` (stereo unspecified) [2-ethylhexyl 2-(2,4-dichlorophenoxy)acetate], 171.00 °C.

As to `CCCCC(CC)COP(=O)(Oc1ccccc1)Oc1ccccc1` (stereo unspecified) [2-ethylhexyl diphenyl phosphate], the flash point stood at 224.00 °C.

Consider `C=CC(=O)OCC(CC)CCCC` (stereo unspecified) [2-ethylhexyl prop-2-enoate], for which the flash point worked out at 82.00 °C. In turn, `CCC1CO1` (stereo unspecified) [2-ethyloxirane] gave a flash point of -12.00 °C. On to `Nc1ccccc1F` [2-fluoroaniline], for which the flash point came out at 60.00 °C.

For `CCCCCCOCCO` [2-hexoxyethanol], the flash point came to 91.00 °C.

Compound `CC(C)(O)C#N` [2-hydroxy-2-methylpropanenitrile] displayed a flash point of 74.00 °C.

As for `CC(=O)OCCO` [2-hydroxyethyl acetate], the flash point amounted to 102.00 °C. `NC(=O)OCCO` [2-hydroxyethyl carbamate] displayed a flash point of 188.00 °C. Turning to `CCCCCCCCCCCCCCCCCC(=O)OCCO` [2-hydroxyethyl octadecanoate], the flash point was 260.00 °C. For `O=C(O)CC(O)(CC(=O)O)C(=O)O` [2-hydroxypropane-1,2,3-tricarboxylic acid] the value was 100.00 °C; for `CC(O)C#N` (stereo unspecified) [2-hydroxypropanenitrile], 77.00 °C.

In the case of `CC(O)C(=O)O` (stereo unspecified) [2-hydroxypropanoic acid], the flash point is 113.00 °C. For the compound `C/C=C/c1ccc(O)c(OC)c1` [2-methoxy-4-[(E)-prop-1-enyl]phenol], the flash point came to 113.00 °C.

As for `COCCOC(C)=O` [2-methoxyethyl acetate], the flash point turned out to be 44.00 °C. `COc1ccccc1O` [2-methoxyphenol] registered a flash point of 74.00 °C.

In the case of `COC(C)COC(C)=O` (stereo unspecified) [2-methoxypropyl acetate], the flash point came to 25.00 °C. Under `CC(C)CNCC(C)C` [2-methyl-N-(2-methylpropyl)propan-1-amine] stands 29.00 °C; under `Cc1ccccc1N` [2-methylaniline], 85.00 °C; under `Cc1ccccc1C#N` [2-methylbenzonitrile], 84.00 °C. For `C=CC(C)(C)O` [2-methylbut-3-en-2-ol] the value was 13.00 °C; for `C=CC(=C)C` [2-methylbuta-1,3-diene], -54.00 °C; for `CCC(C)CO` (stereo unspecified) [2-methylbutan-1-ol], 50.00 °C. For `CCC(C)(C)OC(C)=O` [2-methylbutan-2-yl acetate] the value was 26.00 °C. `CC1CCCCC1=O` (stereo unspecified) [2-methylcyclohexan-1-one] gave a flash point of 48.00 °C. For `Cc1ccco1` [2-methylfuran] the value was -30.00 °C. Compound `CC1CO1` (stereo unspecified) [2-methyloxirane] returned a flash point of -37.00 °C.

On to `C=C(C)CCC` [2-methylpent-1-ene], for which the flash point is -26.00 °C. For `CCCC(C)CO` (stereo unspecified) [2-methylpentan-1-ol] the value was 54.00 °C; for `CCCC(C)C=O` (stereo unspecified) [2-methylpentanal], 20.00 °C. The compound `CC(O)CC(C)(C)O` (stereo unspecified) [2-methylpentane-2,4-diol] returned a flash point of 93.00 °C. Under `C=C(C)C` [2-methylprop-1-ene] stands -76.00 °C.

The compound `C=C(C)C=O` [2-methylprop-2-enal] came in with a flash point of 2.00 °C. Under `C=C(C)C(=O)O` [2-methylprop-2-enoic acid] stands 77.00 °C. Turning to `CC(C)CN` [2-methylpropan-1-amine], the flash point was -9.00 °C. For `CC(C)(C)O` [2-methylpropan-2-ol] the value was 11.00 °C; for `CC(C)C` [2-methylpropane], -83.00 °C; for `CC(C)C#N` [2-methylpropanenitrile], 8.00 °C. Turning to `CC(C)C(=O)OC(=O)C(C)C` [2-methylpropanoyl 2-methylpropanoate], the flash point was 59.00 °C. `CC(C)COC(=O)C(C)C` [2-methylpropyl 2-methylpropanoate] came in with a flash point of 37.00 °C.

`CC(=O)OCC(C)C` [2-methylpropyl acetate] had a flash point of 17.00 °C.

Take `C=CC(=O)OCC(C)C` [2-methylpropyl prop-2-enoate]: the flash point stood at 30.00 °C. For `Cc1ccccn1` [2-methylpyridine] the value was 36.00 °C; for `Cc1ccc2ccccc2n1` [2-methylquinoline], 79.00 °C.
